Assay results as given in patent US20260306500A1, “METHOD OF INHIBITING ADENOSINE TRIPHOSPHATE SECRETION, METHOD OF INHIBITING HEPATIC STELLATE CELL ACTIVATION, METHOD OF DEACTIVATING HEPATIC STELLATE CELL, METHOD OF TREATING HEPATIC FIBROSIS, METHOD OF TREATING NON-ALCOHOLIC STEATOHEPATITIS, AND METHOD OF TREATING PSORIASIS” (Kurume University, priority 2023, published 2026).

How the values were obtained:
mouse auricle [1] = test: Topical solutions on imiquimod-induced psoriasis (Example 21); type: in vivo; settings: for degree of auricular thickening: N=2 (FIG. 44)
Protocol: On Days 1, 2, 3, 5, and 6, 62.5 mg of 5% imiquimod cream (Beselna Cream 5%) was applied to auricles of wild-type mice (IMQ) or VNUT knockout mice (VNUT KO+IMQ) to induce psoriatic symptoms. […] For a negative control, only 20% glycerin solution was applied. In IMQ+1% IMG and IMQ+0.1% IMG, 20% glycerin solution supplemented with 1% (w/v) imeglimin and 0.1% (w/v) imeglimin, respectively, was applied immediately after the imiquimod application. Further, in IMQ+1% Clo and IMQ+0.1% Clo, 20% glycerin solution supplemented with 1% (w/v) clodronate and 0.1% (w/v) clodronate, respectively, was applied immediately after the imiquimod application.

VNUT = settings: known; cited from earlier work
ATP secretion = settings: known; cited from earlier work
[2] = system: macrophages (THP-1 cells); test: ATP secretion from macrophages differentiated from THP-1 cells upon LPS stimulation; type: cell-based, human; settings: 10 μM, 10 μg/ml LPS, N=10 (FIG. 9)
Protocol: Human acute monocytic leukemia cells (THP-1 cells (ACTT)) were cultured in accordance with Reference D. THP-1 cells were cultured in RPMI1640 medium supplemented with 10% fetal bovine serum (FBS), 100 units/ml penicillin, and 100 μg/ml streptomycin at 37° C. in 5% CO2 for 1 day. Further, THP-1 cells were cultured in RPMI1640 medium supplemented with 1 μg/ml Escherichia coli serotype 055:B5 (manufactured by Sigma-Aldrich) and 1000 units/ml mouse IFN-γ (manufactured by R&D Systems) at 37° C. in 5% CO2 for 1 day, to allow differentiation into macrophages.
The differentiated macrophages were cultured in RPMI1640 medium supplemented with 1 mg/ml Escherichia coli serotype 055:B5 (manufactured by Sigma-Aldrich) and 1000 units/ml mouse IFN-γ (manufactured by R&D Systems) at 2.5×10^4 cells/well in a 24-well plate at 37° C. in 5% CO2 for 4 days. The medium was replaced with HBSS (manufactured by Gibco) supplemented with imeglimin or clodronate), and then LPS (10 μg/ml) was added thereto, followed by further performing incubation for 10 minutes and then collection of 200 μl of the supernatant. The supernatant was immediately treated on a heat block at 95° C. for 10 minutes, and ATP in the supernatant was quantified using an ATP assay kit−Luminescence (manufactured by Dojindo) (N=10).

mouse auricle [3] = test: Imiquimod-induced psoriasis model, oral imeglimin (Example 18); type: in vivo
Protocol: Experimental psoriatic symptoms were induced in a mouse auricle by imiquimod. Six-week-old male C57BL/6 mice (N=5) were acclimated for one week. On Days 1 to 7, 62.5 mg of 5% imiquimod cream (Beselna Cream 5%) (3.125 mg in terms of the active ingredient, manufactured by Mochida Pharmaceutical Co. Ltd.) was applied to the right auricle of the mice for 7 consecutive days (IMQ group). Once daily after the imiquimod application, the imeglimin administration group (IMQ+IMG group) received oral administration, at 40 mg/kg, of 500-mg Twymeeg (trademark) tablets (manufactured by Sumitomo Pharma Co. Ltd.) dissolved in physiological saline. The control group received an equal volume of physiological saline. On Day 8, the mice were euthanized by cervical dislocation, and auricle thickness was measured using a dial thickness gauge (manufactured by Adachi Sogyo Co., Ltd.).
Each excised mouse auricle was fixed in 4% paraformaldehyde at 4° C. overnight. After ethanol substitution, the auricle was embedded in paraffin, sectioned using a rotary microtome Leica RM2165 (thickness, […]), and subjected to HE staining or immunohistochemical staining. For the immunohistochemical staining, the sections were deparaffinized, washed in xylene, and rehydrated through graded alcohols. The sections were incubated in DAKO at 95° C. for 30 minutes. The sections were blocked at room temperature for 60 minutes and then incubated at room temperature for 2 hours to allow reaction with a TGM1 anti-rabbit polyclonal antibody (catalog number 12912-3-AP, manufactured by Proteintech). The sample was washed and then allowed to react with a secondary antibody (Alexa 544-conjugated secondary antibody (goat anti-rabbit IgG) (manufactured by Molecular Probes)) at room temperature for 60 minutes. After allowing reaction with DAPI at room temperature for 10 minutes, the sections were mounted with Fluoromount and imaged using a fluorescence microscope (BZ-X710, manufactured by Keyence).

[4] = topical 0.1% (w/v) in 20% glycerin solution after imiquimod
[5] = topical 1% (w/v) in 20% glycerin solution after imiquimod
[6] = 40 mg/kg oral once daily, Day 8, N=5 (FIG. 33)

SMILES | auricular thickness compared with imiquimod-treated VNUT knockout mice (mouse auricle [1]; topical 0.1% (w/v)) | degree of auricular thickening (mouse auricle [1]; [4]) | auricular thickness compared with imiquimod-treated VNUT knockout mice (mouse auricle [1]; topical 1% (w/v)) | degree of auricular thickening (mouse auricle [1]; [5]) | VNUT inhibition (VNUT) | ATP secretion inhibitory action (ATP secretion) | LPS-induced ATP secretion from macrophages [2] | concentration dependence of effect on auricular thickening (mouse auricle [1]; topical 0.1% and 1% (w/v)) | inhibitory effect on psoriatic symptoms by TMG1 immunohistochemical images (mouse auricle [3]; 40 mg/kg oral once daily (FIG. 36)) | epidermal desquamation (mouse auricle [3]; [6]) | psoriatic symptoms (mouse auricle [3]; [6]) | imiquimod-induced auricle thickening (mouse auricle [3]; 40 mg/kg oral once daily, N=5 (FIG. 34))
O=P(O)(O)C(Cl)(Cl)P(=O)(O)O [clodronate] | about the same | improved | about the same | improved | known to be a VNUT inhibitor | known to have an ATP secretion inhibitory action | strongly inhibited |  |  |  |  | 
C[C@@H]1N=C(N)NC(N(C)C)=N1 [imeglimin] |  | no effect | about the same | improved |  |  | strongly inhibited | concentration-dependent | supported by the immunohistochemical images of TMG1 | eliminated epidermal desquamation | reduced the psoriatic symptoms | suppressed
